Test results taken from patent US8012956B2, “Tropane compounds” (Exelixis, Inc., priority 2007, dated 2011).

Molecular target: HSP90 (Homo sapiens, UniProt P07900)
Assay: HSP90 inhibition (HSP90 IC50)
Format: biochemical

| SMILES | IC50 [nM] |
| --- | --- |
| CCN1CCC(NC(=O)c2ccc(N3[C@@H]4CC[C@H]3C[C@@H](NC(=O)c3cc(C)c(C(N)=O)cc3C)C4)nc2)CC1 [N-[8-(5-{[(1-ethylpiperidin-4-yl)amino]carbonyl}pyridin-2-yl)-8-azabicyclo[3.2.1]oct-3-endo-yl]-2,5-dimethylbenzene-1,4-dicarboxamide] | 500 to 999 |
| COc1cccc(C(=O)NC2CC3CCC(C2)N3c2ccc(C(=O)N[C@H](C)C(C)C)cn2)c1C (stereo partly drawn) [N-[(1R)-1,2-dimethylpropyl]-6-[3-endo-({[2-methyl-3-(methyloxy)phenyl]carbonyl}amino)-8-azabicyclo[3.2.1]oct-8-yl]pyridine-3-carboxamide] | 2000 to 10000 |
| COc1cccc(C(=O)NC2CC3CCC(C2)N3c2ccc(C(=O)N[C@@H]3CC4CCC3C4)cn2)c1C (stereo partly drawn) [N-[(1R,2R,4S)-bicyclo[2.2.1]hept-2-yl]-6-[3-endo-({[2-methyl-3-(methyloxy)phenyl]carbonyl}amino)-8-azabicyclo[3.2.1]oct-8-yl]pyridine-3-carboxamide] | 1000 to 2000 |
| COc1cccc(C(=O)NC2CC3CCC(C2)N3c2ccc(C(=O)N[C@@H](C)C(C)C)cn2)c1C (stereo partly drawn) [N-[(1S)-1,2-dimethylpropyl]-6-[3-endo-({[2-methyl-3-(methyloxy)phenyl]carbonyl}amino)-8-azabicyclo[3.2.1]oct-8-yl]pyridine-3-carboxamide] | 1000 to 2000 |
| COC[C@H](C)NC(=O)c1ccc(N2C3CCC2CC(NC(=O)c2cccc(OC)c2C)C3)nc1 (stereo partly drawn) [N-[(1S)-1-methyl-2-(methyloxy)ethyl]-6-[3-endo-({[2-methyl-3-(methyloxy)phenyl]carbonyl}amino)-8-azabicyclo[3.2.1]oct-8-yl]pyridine-3-carboxamide] | 1000 to 2000 |
| COc1cccc(C(=O)NC2CC3CCC(C2)N3c2ccc(C(=O)N[C@@H](C)C(N)=O)cn2)c1C (stereo partly drawn) [N-[(1S)-2-amino-1-methyl-2-oxoethyl]-6-[3-endo-({[2-methyl-3-(methyloxy)phenyl]carbonyl}amino)-8-azabicyclo[3.2.1]oct-8-yl]pyridine-3-carboxamide] | 500 to 999 |
| COc1cccc(C(=O)NC2CC3CCC(C2)N3c2ccc(C(=O)N[C@@H](C)CO)cn2)c1C (stereo partly drawn) [N-[(1S)-2-hydroxy-1-methylethyl]-6-[3-endo-({[2-methyl-3-(methyloxy)phenyl]carbonyl}amino)-8-azabicyclo[3.2.1]oct-8-yl]pyridine-3-carboxamide] | 1000 to 2000 |
| COc1cccc(C(=O)NC2CC3CCC(C2)N3c2ccc(C(=O)N[C@H]3CCCC[C@@H]3O)cn2)c1C (stereo partly drawn) [N-[(1S,2S)-2-hydroxycyclohexyl]-6-[3-endo-({[2-methyl-3-(methyloxy)phenyl]carbonyl}amino)-8-azabicyclo[3.2.1]oct-8-yl]pyridlne-3-carboxamide] | 2000 to 10000 |
| COc1cccc(C(=O)NC2CC3CCC(C2)N3c2ccc(C(=O)NCC3COC(C)(C)O3)cn2)c1C (stereo not drawn) [N-[(2,2-dimethyl-1,3-dioxolan-4-yl)methyl]-6-[3-endo-({[2-methyl-3-(methyloxy)phenyl]carbonyl}amino)-8-azabicyclo[3.2.1]oct-8-yl]pyridine-3-carboxamide] | 2000 to 10000 |
| COc1cccc(C(=O)N[C@H]2C[C@H]3CC[C@@H](C2)N3c2ccc(C(=O)NCc3ccc(F)cc3F)cn2)c1C [N-[(2,4-difluorophenyl)methyl]-6-[3-endo-({[2-methyl-3-(methyloxy)phenyl]carbonyl}amino)-8-azabicyclo[3.2.1]oct-8-yl]pyridine-3-carboxamide] | < 500 |
| COc1cccc(C(=O)N[C@H]2C[C@H]3CC[C@@H](C2)N3c2ccc(C(=O)NCc3cc(F)ccc3F)cn2)c1C [N-[(2,5-difluorophenyl)methyl]-6-[3-endo-({[2-methyl-3-(methyloxy)phenyl]carbonyl}amino)-8-azabicyclo[3.2.1]oct-8-yl]pyridine-3-carboxamide] | 500 to 999 |
| COc1cccc(C(=O)N[C@H]2C[C@H]3CC[C@@H](C2)N3c2ccc(C(=O)NCc3c(F)cccc3F)cn2)c1C [N-[(2,6-difluorophenyl)methyl]-6-[3-endo-({[2-methyl-3-(methyloxy)phenyl]carbonyl}amino)-8-azabicyclo[3.2.1]oct-8-yl]pyridine-3-carboxamide] | < 500 |

The remaining lines, values ahead:

| IC50 [nM] | SMILES |
| --- | --- |
| < 500 | CC(=O)c1ccc(N2[C@@H]3CC[C@H]2C[C@@H](NC(=O)c2cc(NC4CCC(C(F)(F)F)CC4)c(C(N)=O)cc2C)C3)nc1 (stereo partly drawn) [N-[8-(5-acetylpyridin-2-yl)-8-azabicyclo[3.2.1]oct-3-endo-yl]-2-methyl-5-{[4-(trifluoromethyl)cyclohexyl]amino} benzene-1,4-dicarboxamide] |
| < 500 | CCC(CC)Nc1cc(C(=O)N[C@H]2C[C@H]3CC[C@@H](C2)N3c2ccc(C(C)=O)cn2)c(F)cc1C(N)=O [N-[8-(5-acetylpyridin-2-yl)-8-azabicyclo[3.2.1]oct-3-endo-yl]-5-[(1-ethylpropyl)amino]-2-fluorobenzene-1,4-dicarboxamide] |
| < 500 | CC(=O)c1ccc(N2C3CCC2CC(NC(=O)c2cc(N[C@H]4CC[C@H](O)CC4)c(C(N)=O)cc2C)C3)nc1 (stereo partly drawn) [N-[8-(5-acetylpyridin-2-yl)-8-azabicyclo[3.2.1]oct-3-endo-yl]-5-[(trans-4-hydroxycyclohexyl)amino]-2-methylbenzene-1,4-dicarboxamide] |
| < 500 | CCN1CC(NC(=O)c2ccc(N3[C@@H]4CC[C@H]3C[C@@H](NC(=O)c3cc(C)c(C(N)=O)cc3C)C4)nc2)C1 [N-[8-(5-{[(1-ethylazetidin-3-yl)amino]carbonyl}pyridin-2-yl)-8-azabicyclo[3.2.1]oct-3-endo-yl]-2,5-dimethylbenzene-1,4-dicarboxamide] |
| < 500 | NC(=O)c1ccc(C(=O)N[C@H]2C[C@H]3CC[C@@H](C2)N3c2ccc(C(=O)NCc3ccccc3)cn2)cc1 [N-[8-(5-{[(phenylmethyl)amino]carbonyl}pyridin-2-yl)-8-azabicyclo[3.2.1]oct-3-endo-yl]benzene-1,4-dicarboxamide] |
| < 500 | NC(=O)c1ccc(C(=O)N[C@H]2C[C@H]3CC[C@@H](C2)N3c2ccc(C(=O)NCc3cccnc3)cn2)cc1 [N-[8-(5-{[(pyridin-3-ylmethyl)amino]carbonyl}pyridin-2-yl)-8-azabicyclo[3.2.1]oct-3-endo-yl]benzene-1,4-dicarboxamide] |
| < 500 | COc1cccc(C(=O)NC2CC3CCC(C2)N3c2ccc(C(=O)N[C@@H](C)c3ccc(Cl)cc3)cn2)c1C (stereo partly drawn) [N-[(1S)-1-(4-chlorophenyl)ethyl]-6-[3-endo-({[2-methyl-3-(methyloxy)phenyl]carbonyl}amino)-8-azabicyclo[3.2.1]oct-8-yl]pyridine-3-carboxamide] |
| < 500 | CCN(CC)CCOc1ccc([C@H](C)NC(=O)c2ccc(N3C4CCC3CC(NC(=O)c3cccc(OC)c3C)C4)nc2)c(F)c1 (stereo partly drawn) [N-[(1S)-1-(4-{[2-(diethylamino)ethyl]oxy}-2-fluorophenyl)ethyl]-6-[3-endo-({[2-methyl-3-(methyloxy)phenyl]carbonyl}amino)-8-azabicyclo[3.2.1]oct-8-yl]pyridine-3-carboxamide] |
| < 500 | CCN(CC)CCOc1ccc([C@H](C)NC(=O)c2ccc(N3C4CCC3CC(NC(=O)c3cccc(OC)c3C)C4)nc2)cc1 (stereo partly drawn) [N-[(1S)-1-(4-{[2-(diethylamino)ethyl]oxy}phenyl)ethyl]-6-[3-endo-({[2-methyl-3-(methyloxy)phenyl]carbonyl}amino)-8-azabicyclo[3.2.1]oct-8-yl]pyridine-3-carboxamide] |
